Reference: US10123993B2, “Cyclic ureas as inhibitors of rock” (BRISTOL-MYERS SQUIBB COMPANY, priority 2015, dated 2018)

target: ROCK2 (Homo sapiens, UniProt O75116); experiment: ROCK2 kinase inhibition assay (Caliper LABCHIP, FITC peptide substrate); assay type: biochemical; settings: 5 μM ATP, 1.5 μM peptide substrate; value ranges
Procedure: The effectiveness of compounds of the present invention as ROCK inhibitors can be determined in a 30 μL assay containing 20 mM HEPES, pH 7.5, 20 mM MgCl2, 0.015% Brij-35, 4 mM DTT, 5 μM ATP and 1.5 μM peptide substrate (FITC-AHA-AKRRRLSSLRA-OH). Compounds were dissolved in DMSO so that the final concentration of DMSO was <2%, and the reaction was initiated with Rho kinase variants. After incubation, the reaction was terminated by the addition of EDTA and the phosphorylated and non-phosphorylated peptides separated using a LABCHIP® 3000 Reader (Caliper Life Sciences). […] Compounds were tested in dose-response format, and the inhibition of kinase activity was calculated at each concentration of compound. The inhibition data were fit using a curve-fitting program to determine the IC50; i.e., the concentration of compound required to inhibit 50% of kinase activity.
Representative Examples were tested in the ROCK2 assay described above and found having ROCK inhibitory activity.

Sequence of ROCK2 (O75116 whole entry, species assumed): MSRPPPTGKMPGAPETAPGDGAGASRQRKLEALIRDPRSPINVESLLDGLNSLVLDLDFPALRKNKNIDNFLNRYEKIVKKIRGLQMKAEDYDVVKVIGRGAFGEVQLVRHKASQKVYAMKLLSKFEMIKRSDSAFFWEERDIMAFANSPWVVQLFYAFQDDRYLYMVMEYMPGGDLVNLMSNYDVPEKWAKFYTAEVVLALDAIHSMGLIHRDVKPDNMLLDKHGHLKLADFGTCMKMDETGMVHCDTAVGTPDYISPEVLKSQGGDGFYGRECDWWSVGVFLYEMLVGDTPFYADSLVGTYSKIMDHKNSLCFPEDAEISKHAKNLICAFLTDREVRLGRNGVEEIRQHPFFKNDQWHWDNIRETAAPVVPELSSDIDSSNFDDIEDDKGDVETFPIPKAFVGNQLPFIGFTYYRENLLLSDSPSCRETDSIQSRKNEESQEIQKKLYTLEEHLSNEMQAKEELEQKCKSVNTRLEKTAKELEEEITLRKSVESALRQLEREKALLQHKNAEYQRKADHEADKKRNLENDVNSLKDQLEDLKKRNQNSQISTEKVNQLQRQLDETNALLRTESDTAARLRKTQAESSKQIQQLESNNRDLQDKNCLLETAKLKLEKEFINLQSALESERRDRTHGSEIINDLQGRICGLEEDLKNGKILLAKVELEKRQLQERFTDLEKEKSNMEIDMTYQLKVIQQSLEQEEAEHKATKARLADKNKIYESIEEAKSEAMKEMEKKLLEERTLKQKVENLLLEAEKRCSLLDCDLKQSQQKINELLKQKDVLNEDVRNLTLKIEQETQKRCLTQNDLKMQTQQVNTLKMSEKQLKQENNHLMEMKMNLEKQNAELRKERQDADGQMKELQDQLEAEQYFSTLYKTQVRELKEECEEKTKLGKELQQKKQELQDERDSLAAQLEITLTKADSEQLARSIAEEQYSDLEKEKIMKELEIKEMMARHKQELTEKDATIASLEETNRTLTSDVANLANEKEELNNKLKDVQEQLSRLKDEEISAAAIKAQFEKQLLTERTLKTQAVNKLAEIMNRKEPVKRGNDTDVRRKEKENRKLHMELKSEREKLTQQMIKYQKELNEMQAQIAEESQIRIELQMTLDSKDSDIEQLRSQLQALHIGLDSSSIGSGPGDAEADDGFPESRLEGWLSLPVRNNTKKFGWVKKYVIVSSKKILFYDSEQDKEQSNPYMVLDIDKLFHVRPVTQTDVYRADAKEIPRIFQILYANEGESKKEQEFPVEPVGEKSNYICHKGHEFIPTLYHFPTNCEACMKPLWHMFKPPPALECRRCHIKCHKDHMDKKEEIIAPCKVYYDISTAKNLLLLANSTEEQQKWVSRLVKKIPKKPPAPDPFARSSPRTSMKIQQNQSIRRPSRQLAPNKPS

Row | IC50 [nM] | Structure (SMILES)
1 | < 2 | COc1cc(F)cc(C(C)n2ccn(-c3ccc(-c4cn[nH]c4)c(OC)n3)c2=O)c1 (single isomer, unassigned) [Example 397, 1-(1-(3-fluoro-5-methoxyphenyl)ethyl)-3-(6-methoxy-5-(1H-pyrazol-4-yl)pyridin-2-yl)-1H-imidazol-2(3H)-one]
2 | 200 to 2000 | CCOc1cccc(C(C)n2ccn(-c3ccc(-c4cn[nH]c4)c(CC)n3)c2=O)c1 (single isomer, unassigned) [Example 365, 1-(1-(3-ethoxyphenyl)ethyl)-3-(6-ethyl-5-(1H-pyrazol-4-yl)pyridin-2-yl)-1H-imidazol-2(3H)-one]
3 | 20.1 to 200 | COc1cccc(CN2CCN(c3ccc(-c4cn[nH]c4)c(C4CC4)c3)C2=O)c1 [Example 468, 1-(3-cyclopropyl-4-(1H-pyrazol-4-yl)phenyl)-3-(3-methoxybenzyl)imidazolidin-2-one]
4 | 2.1 to 20 | COc1cc(CN2CCN(c3ccc(-c4cn[nH]c4)cn3)C2=O)ccc1F [Example 429, 1-(5-(1H-pyrazol-4-yl)pyridin-2-yl)-3-(4-fluoro-3-methoxybenzyl)imidazolidin-2-one]
5 | 2.1 to 20 | COc1cc(F)cc(C(C)n2ccn(-c3ccc(-c4cn[nH]c4)c(OC)n3)c2=O)c1 (single isomer, unassigned) [Example 398, 1-(1-(3-fluoro-5-methoxyphenyl)ethyl)-3-(6-methoxy-5-(1H-pyrazol-4-yl)pyridin-2-yl)-1H-imidazol-2(3H)-one]
6 | < 2 | COc1cccc(CN2C(=O)N(c3ccc(-c4cn[nH]c4)cc3)C[C@@H]2CO)c1 [Example 125, (R)-1-(4-(1H-Pyrazol-4-yl)phenyl)-4-(hydroxymethyl)-3-(3-methoxybenzyl)imidazolidin-2-one]
7 | 2.1 to 20 | COc1cc(CN2CCN(c3ccc(-c4cn[nH]c4)cc3)C2=O)ccc1F [Example 263, 1-(4-(1H-pyrazol-4-yl)phenyl)-3-(4-fluoro-3-methoxybenzyl)imidazolidin-2-one]
8 | 20.1 to 200 | COc1cccc(C(C)N2C(=O)N(c3ccc(-c4cn[nH]c4)cc3)C[C@@H]2CO)c1 (single isomer, unassigned) [Example 133]
9 | 20.1 to 200 | CCc1nc(N2CCN(C(C)c3cc(F)cc(OC)c3)C2=O)ccc1-c1cn[nH]c1 (single isomer, unassigned) [Example 269, 1-(6-ethyl-5-(1H-pyrazol-4-yl)pyridin-2-yl)-3-(1-(3-fluoro-5-methoxyphenyl)ethyl)imidazolidin-2-one]
10 | 20.1 to 200 | COc1cc(CN2CCN(c3cc(F)c(-c4cn[nH]c4)cc3F)C2=O)ccc1F [Example 449, 1-(2,5-difluoro-4-(1H-pyrazol-4-yl)phenyl)-3-(4-fluoro-3-methobenzyl)imidazolidin-2-one]
11 | 20.1 to 200 | COc1cccc(C(C)n2ccn(-c3ccc(-c4cn[nH]c4)cn3)c2=O)c1 (single isomer, unassigned) [Example 354, 1-(5-(1H-pyrazol-4-yl)pyridin-2-yl)-3-(1-(3-methoxyphenyl)ethyl)-1H-imidazol-2(3H)-one]
12 | 2.1 to 20 | COc1cccc(C(C)N2CCN(c3ccc(-c4cn[nH]c4)c(C)n3)C2=O)c1 (single isomer, unassigned) [Example 181, 1-(1-(3-methoxy-phenyl)-ethyl)-3-(6-methyl-5-(1H-pyrazol-4-yl)pyridin-2-yl)-imidazolidin-2-one]
13 | 2.1 to 20 | CCc1nc(N2CCN(Cc3ccc(F)c(OC)c3)C2=O)ccc1-c1cn[nH]c1 [Example 170, 1-(6-ethyl-5-(1H-pyrazol-4-yl)pyridin-2-yl)-3-(4-fluoro-3-methoxy-benzyl) imidazolidin-2-one]
14 | 200 to 2000 | COc1cc(C(C)N2CCN(c3ccc(-c4cn[nH]c4)c(C)n3)C2=O)ccc1F (single isomer, unassigned) [Example 208, 1-(1-(4-fluoro-3-methoxyphenyl)ethyl)-3-(6-methyl-5-(1H-pyrazol-4-yl)pyridin-2-yl)imidazolidin-2-one]
15 | < 2 | COc1cc(F)cc(CN2C(=O)N(c3ccc(-c4cn[nH]c4)cc3)C[C@H]2CO)c1 [Example 129, (S)-1-(4-(1H-pyrazol-4-yl)phenyl)-3-(3-fluoro-5-methoxy-benzyl)-4-(hydroxy-methyl)-imidazolidin-2-one]
16 | 20.1 to 200 | COc1cccc(CN2CC(C(=O)O)N(c3ccc(-c4cn[nH]c4)cc3)C2=O)c1 (centres unmarked) [Example 35, 3-(4-(1H-Pyrazol-4-yl)phenyl)-1-(3-methoxybenzyl)-2-oxoimidazolidine-4-carboxylic Acid]

The remaining lines, values behind:

Row | Structure (SMILES) | IC50 [nM]
17 | COc1nc(N2CCN(Cc3cccc(F)c3OC)C2=O)ccc1-c1cn[nH]c1 [Example 225, 1-(3-fluoro-2-methoxybenzyl)-3-(6-methoxy-5-(1H-pyrazol-4-yl)pyridin-2-yl)imidazolidin-2-one] | 2.1 to 20
18 | COc1cc(F)cc(CN2C(=O)N(c3ccc(-c4cn[nH]c4)cn3)C[C@@H]2CO)c1 [Example 313, (R)-1-(5-(1H-pyrazol-4-yl)pyridin-2-yl)-3-(3-fluoro-5-methoxybenzyl)-4-(hydroxymethyl)imidazolidin-2-one] | 20.1 to 200
19 | CNc1nc(N2CCN(Cc3cccc(OC)c3)C2=O)ccc1-c1cn[nH]c1 [Example 202, 1-(3-methoxy-benzyl)-3-(6-(methyl-amino)-5-(1H-pyrazol-4-yl)pyridin-2-yl)-imidazolidin-2-one] | 2.1 to 20
20 | COc1ccc(F)c(CN2CCN(c3ccc(-c4cn[nH]c4)c(F)c3)C2=O)c1 [Example 426, 1-(3-fluoro-4-(1H-pyrazol-4-yl)phenyl)-3-(2-fluoro-5-methoxybenzyl)imidazolidin-2-one] | 2.1 to 20
21 | CCc1nc(N2CCN(C(CO)c3cccc(OC)c3)C2=O)ccc1-c1cn[nH]c1 (single isomer, unassigned) [Example 159, 1-(6-ethyl-5-(1H-pyrazol-4-yl)pyridin-2-yl)-3-(2-hydroxy-1-(3-methoxy-phenyl)ethyl) imidazolidin-2-one] | < 2
22 | O=C1N(Cc2ccccn2)CCN1c1ccc(-c2cn[nH]c2)cn1 [Example 243, 1-(5-(1H-pyrazol-4-yl)pyridin-2-yl)-3-(pyridin-2-ylmethyl)imidazolidin-2-one] | 200 to 2000
23 | COc1cccc(CN2CC(CO)N(c3ccc(-c4cn[nH]c4)cc3)C2=O)c1 (single isomer, unassigned; (+)) [Example 48, (+)-3-(4-(1H-Pyrazol-4-yl)phenyl)-4-(hydroxymethyl)-1-(3-methoxybenzyl)imidazolidin-2-one] | 2.1 to 20
24 | CCc1cc(-n2ccn(Cc3cc(F)cc(OC)c3)c2=O)ccc1-c1cn[nH]c1 [Example 454, 1-(3-ethyl-4-(1H-pyrazol-4-yl)phenyl)-3-(3-fluoro-5-methoxybenzyl)-1H-imidazol-2(3H)-one] | 20.1 to 200
25 | CC1(C)CN(c2ccc(-c3cn[nH]c3)cc2)C(=O)N1Cc1cccc(OCC2CC2)c1 [Example 144, 1-(4-(1H-pyrazol-4-yl)phenyl)-3-(3-(cyclo-propyl-methoxy)benzyl)-4,4-dimethyl-imidazolidin-2-one] | 2.1 to 20
26 | COc1cccc(CN2C(=O)N(c3ccc(-c4cn[nH]c4)cc3)CC2(C)C)c1F [Example 143, 1-(4-(1H-pyrazol-4-yl)phenyl)-3-(2-fluoro-3-methoxy-benzyl)-4,4-dimethyl-imidazolidin-2-one] | 20.1 to 200
27 | COc1cccc(CN2CCN(c3ccc(-c4cn[nH]c4)cc3)C2=O)c1 [Example 2, 1-(4-(1H-pyrazol-4-yl)phenyl)-3-(3-methoxybenzyl)imidazolidin-2-one] | 2.1 to 20
28 | O=C1CN(Cc2cc(F)ccc2F)C(=O)N1c1ccc(-c2cn[nH]c2)cc1 [Example 83, 3-(4-(1H-pyrazol-4-yl)phenyl)-1-(2,5-difluorobenzyl)imidazolidine-2,4-dione] | 200 to 2000
29 | Cc1nc(N2CCN(Cc3cccc(OCC4CC4)c3)C2=O)ccc1-c1cn[nH]c1 [Example 186, 1-(3-(cyclo-propyl-methoxy)-benzyl)-3-(6-methyl-5-(1H-pyrazol-4-yl)pyridin-2-yl)-imidazolidin-2-one] | 20.1 to 200
30 | CCc1cc(N2CCN(Cc3ccc(F)c(OC)c3)C2=O)ccc1-c1cn[nH]c1 [Example 281, 1-(3-ethyl-4-(1H-pyrazol-4-yl)phenyl)-3-(4-fluoro-3-methoxybenzyl)imidazolidin-2-one] | 2.1 to 20
31 | COc1nc(N2CCN(Cc3cc(F)ccc3F)C2=O)ccc1-c1cn[nH]c1 [Example 246, 1-(2,5-difluorobenzyl)-3-(6-methoxy-5-(1H-pyrazol-4-yl)pyridin-2-yl)imidazolidin-2-one] | 2.1 to 20
32 | O=C1CN(Cc2ccccc2)C(=O)N1c1ccc(-c2cn[nH]c2)cc1 [Example 87, 3-(4-(1H-pyrazol-4-yl)phenyl)-1-benzylimidazolidine-2,4-dione] | 200 to 2000
33 | COC(=O)C1CN(Cc2cccc(F)c2)C(=O)N1c1ccc(-c2cn[nH]c2)cc1 (centres unmarked) [Example 34, Methyl 3-(4-(1H-pyrazol-4-yl)phenyl)-1-(3-fluorobenzyl)-2-oxoimidazolidine-4-carboxylate] | 20.1 to 200
34 | CNCC(c1cccc(OC)c1)N1CCN(c2ccc(-c3cn[nH]c3)cc2)C1=O (single isomer, unassigned) [Example 310, 1-(4-(1H-Pyrazol-4-yl)phenyl)-3-(1-(3-methoxyphenyl)-2-(methylamino)ethyl)imidazolidin-2-one] | 2.1 to 20
35 | COc1cccc(C(C)N2CCN(c3cc(C)c(-c4cn[nH]c4)cn3)C2=O)c1 (single isomer, unassigned) [Example 471, 1-(1-(3-methoxyphenyl)ethyl)-3-(4-methyl-5-(1H-pyrazol-4-yl)pyridin-2-yl)imidazolidin-2-one] | 20.1 to 200
